Test: Antimicrobial efficacy testing (AET) of atropine sulfate eye drops (0.01%) with different BAK concentrations
Description: The concentration of benzalkonium chloride (BAK) in atropine sulfate eye drops was verified via antimicrobial efficacy testing (AET). The lyophilized preparation was reconstituted with 8 mL of reconstituted diluent including BAK at concentrations of 100 ppm, 80 ppm, 50 ppm, 25 ppm, or 0 ppm to obtain atropine sulfate eye drops (0.01%) including benzalkonium chloride at different concentrations.

[1] = BAK 0 ppm in atropine sulfate eye drops (0.01%)
[2] = BAK 25 ppm in atropine sulfate eye drops (0.01%)
[3] = BAK 50 ppm in atropine sulfate eye drops (0.01%)
[4] = BAK 80 ppm in atropine sulfate eye drops (0.01%)
[5] = BAK 100 ppm in atropine sulfate eye drops (0.01%)

Q: Which “AET, Chinese Pharmacopoeia Method, Criteria A&B” value [1] does the source give for benzalkonium chloride [BAK] here?
A: Fail

Q: What about the “AET, European Pharmacopoeia Method, Criteria A&B” value [1] of the same substance?
A: Fail

Q: And the “AET, United States Pharmacopeia Method” value [1]?
A: Fail

Q: And the “AET, Chinese Pharmacopoeia Method, Criteria A&B” value [2]?
A: Pass

Q: What about the “AET, European Pharmacopoeia Method, Criteria A&B” value [2] of the same substance?
A: Pass

Q: And the “AET, United States Pharmacopeia Method” value [2]?
A: Pass

Q: What about the “AET, Chinese Pharmacopoeia Method, Criteria A&B” value [3] of the same substance?
A: Pass

Q: And the “AET, European Pharmacopoeia Method, Criteria A&B” value [3]?
A: Pass

Q: What about the “AET, United States Pharmacopeia Method” value [3] of the same substance?
A: Pass

Q: And the “AET, Chinese Pharmacopoeia Method, Criteria A&B” value [4]?
A: Pass

Q: And the “AET, European Pharmacopoeia Method, Criteria A&B” value [4]?
A: Pass

Q: And the “AET, United States Pharmacopeia Method” value [4]?
A: Pass

Q: And the “AET, Chinese Pharmacopoeia Method, Criteria A&B” value [5]?
A: Pass

Q: And the “AET, European Pharmacopoeia Method, Criteria A&B” value [5]?
A: Pass

Q: What about the “AET, United States Pharmacopeia Method” value [5] of the same substance?
A: Pass

Q: And the “results of the antibacterial efficacy testing” value (all tested BAK concentrations (100, 80, 50, 25 ppm) except 0 ppm)?
A: met the criteria

Q: What about the “antibacterial efficacy criteria "A", Chinese Pharmacopoeia, during long-term storage” value (benzalkonium chloride concentration greater than 70 ppm) of the same substance?
A: criteria requirements of antibacterial efficacy “A” were met

— patent US20250288575A1, “EYE DROP COMPOSITION FOR PREVENTION OR TREATMENT OF OPHTHALMIC DISEASES AND PREPARATION METHOD THEREFOR” (OCUMENSION THERAPEUTICS (SUZHOU) CO., LTD., priority 2021, published 2025)
